One data set relates to HDL. The following applies: cited from earlier work.
Another data set concerns LDL. The settings on record: cited from earlier work.
In a further data set the test system is albumin. The following applies: cited from earlier work.
The next data set has as its system T.Tn cells. The class given is cell-based. The following applies: for ATX-S10(Na) uptake: 3 h.
[1] abbreviates: T.Tn cells, 50 μg/ml ATX-S10(Na), 10% FCS, 37C, Fig. 4.

Read-outs that look alike come from different tables or passages of the source.

In the case of `C=Cc1c(C)c2cc3nc(c(CC(=O)N[C@@H](CC(=O)O)C(=O)O)c4[nH]c(cc5nc(cc1[nH]2)C(C)=C5CC)c(C)c4C(=O)O)[C@@H](CCC(=O)O)[C@@H]3C` [NPe6, N-aspartyl chlorin-e6], in the data set with HDL, the “Fraction bound to HDL” value is reported as 19%. Also, the “Fraction bound to LDL” value in the data set with LDL is 1%. Besides, in the data set on albumin, the “Fraction bound to albumin” value is 80%.

For `CCCN(CCC)S(=O)(=O)c1ccc(C(=O)O)cc1` [Probenecid], the “ATX-S10(Na) uptake” value was 112.3 % of control with T.Tn cells (30 µM), 105.5 % of control in the data set on T.Tn cells (100 µM), 113.1 % of control in the data set on T.Tn cells (300 µM) and 115.7 % of control with T.Tn cells (1000 µM).

Regarding `CCN(CC)CCCC(C)Nc1ccnc2cc(Cl)ccc12` (stereo not shown) [chloroquine], the “Effect of endocytosis inhibitor on cellular uptake of ATX-S10(Na)” value (shortened to “Effect of endocytosis inhibitor”) with T.Tn cells was “partially but significantly inhibited”.

`CC[C@@]1([C@@H]2O[C@@H]([C@H]3O[C@@](O)(CO)[C@H](C)C[C@@H]3C)C[C@@H]2C)CC[C@H]([C@]2(C)CC[C@]3(C[C@H](O)[C@@H](C)[C@@H]([C@@H](C)[C@@H](OC)[C@H](C)C(=O)O)O3)O2)O1` [monensin]: in the data set with T.Tn cells (setting [1]), the “Effect of endocytosis inhibitor” value is recorded as “partially but significantly inhibited”.

On to `O=CC(=O)c1ccccc1` [phenylglyoxal], for which, in the data set on T.Tn cells (setting [1]), the “Effect of endocytosis inhibitor” value was “partially but significantly inhibited”.

The values are drawn from PMC5926424 (Japanese Journal of Cancer Research : Gann, 2000).
